Reference: ChEMBL document CHEMBL1275440, “In vitro activity of telavancin against resistant gram-positive bacteria” (2008)
≈ marks a conversion by molar mass, not a printed value.

Assays:
Assay type in all cases: functional
Staphylococcus aureus [1] = test: Antibacterial activity against methicillin resistant Staphylococcus aureus MED 2028 osteomyelitis isolate assessed as bacterial count at 4 ug/ml after 4 hrs by time-kill assay
Staphylococcus aureus [2] = test: Antibacterial activity against methicillin resistant Staphylococcus aureus MED 2028 osteomyelitis isolate assessed as bacterial count at 2 ug/ml after 24 hrs by time-kill assay
Staphylococcus aureus [3] = test: Antibacterial activity against methicillin resistant Staphylococcus aureus MED 2028 osteomyelitis isolate assessed as bacterial count at 2 ug/ml after 8 hrs by time-kill assay
Staphylococcus aureus [4] = test: Antibacterial activity against methicillin resistant Staphylococcus aureus MED 2028 osteomyelitis isolate assessed as bacterial count at 2 ug/ml after 4 hrs by time-kill assay
Staphylococcus aureus [5] = test: Antibacterial activity against methicillin resistant Staphylococcus aureus MED 2028 osteomyelitis isolate assessed as bacterial count at 1 ug/ml after 8 hrs by time-kill assay
Streptococcus agalactiae [6] = test: Antibacterial activity against Streptococcus agalactiae MED 2038 by broth microdilution method
Staphylococcus aureus [7] = test: Antibacterial activity against methicillin resistant Staphylococcus aureus MED 2028 osteomyelitis isolate by broth microdilution method
Enterococcus faecium = test: Antibacterial activity against vancomycin resistant Enterococcus faecium VanB clinical isolate by broth microdilution method
Enterococcus faecalis [8] = test: Antibacterial activity against vancomycin resistant Enterococcus faecalis VanA clinical isolate by broth microdilution method
Streptococcus pyogenes [9] = test: Antibacterial activity against Streptococcus pyogenes group A clinical isolate by broth microdilution method
Streptococcus pneumoniae [10] = test: Antibacterial activity against penicillin intermediate Streptococcus pneumoniae clinical isolate by broth microdilution method
[11] = tested on: Staphylococcus haemolyticus; test: Antibacterial activity against methicillin resistant coagulase-negative Staphylococcus haemolyticus clinical isolate by broth microdilution method
[12] = tested on: Staphylococcus epidermidis; test: Antibacterial activity against methicillin resistant Staphylococcus epidermidis clinical isolate by broth microdilution method
Streptococcus pyogenes [13] = test: Antibacterial activity against Streptococcus pyogenes MED 2040 assessed as bacterial count at […] after 24 hrs by time-kill assay
Streptococcus pyogenes [14] = test: Antibacterial activity against Streptococcus pyogenes MED 2040 assessed as bacterial count at […] after 8 hrs by time-kill assay
Streptococcus pyogenes [15] = test: Antibacterial activity against Streptococcus pyogenes MED 2040 assessed as bacterial count at 0.5 ug/ml after 2 hrs by time-kill assay
Streptococcus pyogenes [16] = test: Antibacterial activity against Streptococcus pyogenes MED 2040 assessed as bacterial count at 0.5 ug/ml after 24 hrs by time-kill assay
Streptococcus pyogenes [17] = test: Antibacterial activity against Streptococcus pyogenes MED 2040 assessed as bacterial count at 2 ug/ml after 2 hrs by time-kill assay
Streptococcus pyogenes [18] = test: Antibacterial activity against Streptococcus pyogenes MED 2040 assessed as bacterial count at 2 ug/ml after 24 hrs by time-kill assay
Enterococcus faecalis [19] = test: Antibacterial activity against Enterococcus faecalis ATCC 51575 assessed as bacterial count at 2 ug/ml after 24 hrs by time-kill assay
Enterococcus faecalis [20] = test: Antibacterial activity against Enterococcus faecalis ATCC 51575 assessed as bacterial count at 8 ug/ml after 8 hrs by time-kill assay
Streptococcus agalactiae [21] = test: Antibacterial activity against Streptococcus agalactiae MED 2038 assessed as bacterial count at 8 ug/ml after 8 hrs by time-kill assay
Streptococcus agalactiae [22] = test: Antibacterial activity against Streptococcus agalactiae MED 2038 assessed as bacterial count at 8 ug/ml after 2 hrs by time-kill assay
Streptococcus pneumoniae [23] = test: Antibacterial activity against multidrug resistant Streptococcus pneumoniae MED 1090 assessed as bacterial count at 2 ug/ml after 24 hrs by time-kill assay
Streptococcus pneumoniae [24] = test: Antibacterial activity against multidrug resistant Streptococcus pneumoniae MED 1090 assessed as bacterial count at […] after 8 hrs by time-kill assay
Streptococcus pneumoniae [25] = test: Antibacterial activity against multidrug resistant Streptococcus pneumoniae MED 1090 assessed as bacterial count at 0.06 ug/ml after 2 hrs by time-kill assay
Streptococcus pneumoniae [26] = test: Antibacterial activity against multidrug resistant Streptococcus pneumoniae MED 1090 assessed as bacterial count at 0.03 ug/ml after 24 hrs by time-kill assay
Streptococcus pneumoniae [27] = test: Antibacterial activity against multidrug resistant Streptococcus pneumoniae MED 1090 assessed as bacterial count at 0.03 ug/ml after 8 hrs by time-kill assay
Streptococcus pneumoniae [28] = test: Antibacterial activity against multidrug resistant Streptococcus pneumoniae MED 1090 assessed as bacterial count at 0.03 ug/ml after 4 hrs by time-kill assay
[29] = tested on: Staphylococcus epidermidis; test: Antibacterial activity against methicillin resistant Staphylococcus epidermidis ATCC 35984 assessed as bacterial count at 8 ug/ml after 8 hrs by time-kill assay
[30] = tested on: Staphylococcus epidermidis; test: Antibacterial activity against methicillin resistant Staphylococcus epidermidis ATCC 35984 assessed as bacterial count at 4 ug/ml after 24 hrs by time-kill assay
[31] = tested on: Staphylococcus epidermidis; test: Antibacterial activity against methicillin resistant Staphylococcus epidermidis ATCC 35984 assessed as bacterial count at 4 ug/ml after 8 hrs by time-kill assay
[32] = tested on: Staphylococcus epidermidis; test: Antibacterial activity against methicillin resistant Staphylococcus epidermidis ATCC 35984 assessed as bacterial count at 2 ug/ml after 8 hrs by time-kill assay
[33] = tested on: Staphylococcus epidermidis; test: Antibacterial activity against methicillin resistant Staphylococcus epidermidis ATCC 35984 assessed as bacterial count at 2 ug/ml after 2 hrs by time-kill assay
Staphylococcus aureus [34] = test: Antibacterial activity against methicillin resistant Staphylococcus aureus MED 1805 bloodstream isolate assessed as bacterial count at 16 ug/ml after 8 hrs by time-kill assay
Staphylococcus aureus [35] = test: Antibacterial activity against methicillin resistant Staphylococcus aureus MED 1805 bloodstream isolate assessed as bacterial count at 16 ug/ml after 2 hrs by time-kill assay
Staphylococcus aureus [36] = test: Antibacterial activity against methicillin resistant Staphylococcus aureus MED 1805 bloodstream isolate assessed as bacterial count at 4 ug/ml after 4 hrs by time-kill assay
Staphylococcus aureus [37] = test: Antibacterial activity against methicillin resistant Staphylococcus aureus MED 1805 bloodstream isolate assessed as bacterial count at 2 ug/ml after 4 hrs by time-kill assay
Staphylococcus aureus [38] = test: Antibacterial activity against methicillin resistant Staphylococcus aureus MED 1805 bloodstream isolate assessed as bacterial count at 2 ug/ml after 2 hrs by time-kill assay
Staphylococcus aureus [39] = test: Antibacterial activity against methicillin resistant Staphylococcus aureus MED 2028 osteomyelitis isolate assessed as bacterial count at 16 ug/ml after 24 hr by time-kill assay
Staphylococcus aureus [40] = test: Antibacterial activity against methicillin resistant Staphylococcus aureus MED 2028 osteomyelitis isolate assessed as bacterial count at 16 ug/ml after 8 hrs by time-kill assay
Staphylococcus aureus [41] = test: Antibacterial activity against methicillin resistant Staphylococcus aureus MED 2028 osteomyelitis isolate assessed as bacterial count at 8 ug/ml after 4 hrs by time-kill assay
Staphylococcus aureus [42] = test: Antibacterial activity against methicillin resistant Staphylococcus aureus MED 2028 osteomyelitis isolate assessed as bacterial count at 4 ug/ml after 24 hrs by time-kill assay

CCCCCCCCCCNCCN[C@@]1(C)C[C@H](O[C@H]2[C@H](Oc3c4cc5cc3Oc3ccc(cc3Cl)[C@@H](O)[C@@H](NC(=O)[C@@H](CC(C)C)NC)C(=O)N[C@@H](CC(N)=O)C(=O)N[C@H]5C(=O)N[C@H]3C(=O)N[C@H](C(=O)N[C@H](C(=O)O)c5cc(O)c(CNCP(=O)(O)O)c(O)c5-c5cc3ccc5O)[C@H](O)c3ccc(c(Cl)c3)O4)O[C@H](CO)[C@@H](O)[C@@H]2O)O[C@@H](C)[C@H]1O [TELAVANCIN]
log10CFU/ml (Staphylococcus aureus [1]): 1.7 | log10CFU/ml (Staphylococcus aureus [2]): 3.4 | log10CFU/ml (Staphylococcus aureus [3]): 3.1 | log10CFU/ml (Staphylococcus aureus [4]): 1.6 | log10CFU/ml (Staphylococcus aureus [5]): 3.4 | MIC (Streptococcus agalactiae [6]): 0.06 µg/mL (≈ 0.0342 µM) | MIC (Staphylococcus aureus [7]): 0.5 µg/mL (≈ 0.285 µM) | MIC50 (Enterococcus faecium): 0.5 µg/mL (≈ 0.285 µM) | MIC90 (Enterococcus faecium): 2 µg/mL (≈ 1.14 µM) | MIC50 (Enterococcus faecalis [8]): 8 µg/mL (≈ 4.56 µM) | MIC90 (Enterococcus faecalis [8]): 16 µg/mL (≈ 9.11 µM) | MIC50 (Streptococcus pyogenes [9]): 0.03 µg/mL (≈ 0.0171 µM) | MIC90 (Streptococcus pyogenes [9]): 0.06 µg/mL (≈ 0.0342 µM) | MIC50 (Streptococcus pneumoniae [10]): 0.015 µg/mL (≈ 0.00854 µM) | MIC90 (Streptococcus pneumoniae [10]): 0.06 µg/mL (≈ 0.0342 µM) | MIC50 [11]: 0.5 µg/mL (≈ 0.285 µM) | MIC90 [11]: 1 µg/mL (≈ 0.57 µM) | MIC50 [12]: 0.5 µg/mL (≈ 0.285 µM) | MIC90 [12]: 1 µg/mL (≈ 0.57 µM) | log10CFU/ml (Streptococcus pyogenes [13]): 2.2 | log10CFU/ml (Streptococcus pyogenes [14]): 2.5 | log10CFU/ml (Streptococcus pyogenes [15]): 0.9 | log10CFU/ml (Streptococcus pyogenes [16]): 3.1 | log10CFU/ml (Streptococcus pyogenes [17]): 1.8 | log10CFU/ml (Streptococcus pyogenes [18]): 3.1 | log10CFU/ml (Enterococcus faecalis [19]): 0.8 | log10CFU/ml (Enterococcus faecalis [20]): 0.5 | log10CFU/ml (Streptococcus agalactiae [21]): 1.8 | log10CFU/ml (Streptococcus agalactiae [22]): 1.1 | log10CFU/ml (Streptococcus pneumoniae [23]): 3.4 | log10CFU/ml (Streptococcus pneumoniae [24]): 3.3 | log10CFU/ml (Streptococcus pneumoniae [25]): 1 | log10CFU/ml (Streptococcus pneumoniae [26]): 3.4 | log10CFU/ml (Streptococcus pneumoniae [27]): 3.4 | log10CFU/ml (Streptococcus pneumoniae [28]): 2.7 | log10CFU/ml [29]: 3.3 | log10CFU/ml [30]: 3.3 | log10CFU/ml [31]: 3.2 | log10CFU/ml [32]: 0.7 | log10CFU/ml [33]: 0.2 | log10CFU/ml (Staphylococcus aureus [34]): 2.9 | log10CFU/ml (Staphylococcus aureus [35]): 0.7 | log10CFU/ml (Staphylococcus aureus [36]): 1.8 | log10CFU/ml (Staphylococcus aureus [37]): 2.8 | log10CFU/ml (Staphylococcus aureus [38]): 1 | log10CFU/ml (Staphylococcus aureus [39]): 3.4 | log10CFU/ml (Staphylococcus aureus [40]): 2.3 | log10CFU/ml (Staphylococcus aureus [41]): 2.2 | log10CFU/ml (Staphylococcus aureus [42]): 3.4
